According to US9340590B2 (priority 2011, dated 2016):
pIC50: −log10 of the molar value. Read-outs that look alike come from different tables or passages of the source. Positions of bridges follow the written chain, without caps; N, C: chain ends. Non-standard residues stand in square brackets, D forms with d. Residues, ends and D or L forms follow the SMILES beside them. Phg = N[C@H](C(=O)O)c1ccccc1

Key:
Assay in all cases: cell-based
hNav1.7 = hNav1.7 (Homo sapiens, UniProt Q15858); type: cell-based; conditions: IonWorks Quattro, read-out: IWQ Use Nav1.7
hNav1.7, sequence (Q15858 whole entry, looked up): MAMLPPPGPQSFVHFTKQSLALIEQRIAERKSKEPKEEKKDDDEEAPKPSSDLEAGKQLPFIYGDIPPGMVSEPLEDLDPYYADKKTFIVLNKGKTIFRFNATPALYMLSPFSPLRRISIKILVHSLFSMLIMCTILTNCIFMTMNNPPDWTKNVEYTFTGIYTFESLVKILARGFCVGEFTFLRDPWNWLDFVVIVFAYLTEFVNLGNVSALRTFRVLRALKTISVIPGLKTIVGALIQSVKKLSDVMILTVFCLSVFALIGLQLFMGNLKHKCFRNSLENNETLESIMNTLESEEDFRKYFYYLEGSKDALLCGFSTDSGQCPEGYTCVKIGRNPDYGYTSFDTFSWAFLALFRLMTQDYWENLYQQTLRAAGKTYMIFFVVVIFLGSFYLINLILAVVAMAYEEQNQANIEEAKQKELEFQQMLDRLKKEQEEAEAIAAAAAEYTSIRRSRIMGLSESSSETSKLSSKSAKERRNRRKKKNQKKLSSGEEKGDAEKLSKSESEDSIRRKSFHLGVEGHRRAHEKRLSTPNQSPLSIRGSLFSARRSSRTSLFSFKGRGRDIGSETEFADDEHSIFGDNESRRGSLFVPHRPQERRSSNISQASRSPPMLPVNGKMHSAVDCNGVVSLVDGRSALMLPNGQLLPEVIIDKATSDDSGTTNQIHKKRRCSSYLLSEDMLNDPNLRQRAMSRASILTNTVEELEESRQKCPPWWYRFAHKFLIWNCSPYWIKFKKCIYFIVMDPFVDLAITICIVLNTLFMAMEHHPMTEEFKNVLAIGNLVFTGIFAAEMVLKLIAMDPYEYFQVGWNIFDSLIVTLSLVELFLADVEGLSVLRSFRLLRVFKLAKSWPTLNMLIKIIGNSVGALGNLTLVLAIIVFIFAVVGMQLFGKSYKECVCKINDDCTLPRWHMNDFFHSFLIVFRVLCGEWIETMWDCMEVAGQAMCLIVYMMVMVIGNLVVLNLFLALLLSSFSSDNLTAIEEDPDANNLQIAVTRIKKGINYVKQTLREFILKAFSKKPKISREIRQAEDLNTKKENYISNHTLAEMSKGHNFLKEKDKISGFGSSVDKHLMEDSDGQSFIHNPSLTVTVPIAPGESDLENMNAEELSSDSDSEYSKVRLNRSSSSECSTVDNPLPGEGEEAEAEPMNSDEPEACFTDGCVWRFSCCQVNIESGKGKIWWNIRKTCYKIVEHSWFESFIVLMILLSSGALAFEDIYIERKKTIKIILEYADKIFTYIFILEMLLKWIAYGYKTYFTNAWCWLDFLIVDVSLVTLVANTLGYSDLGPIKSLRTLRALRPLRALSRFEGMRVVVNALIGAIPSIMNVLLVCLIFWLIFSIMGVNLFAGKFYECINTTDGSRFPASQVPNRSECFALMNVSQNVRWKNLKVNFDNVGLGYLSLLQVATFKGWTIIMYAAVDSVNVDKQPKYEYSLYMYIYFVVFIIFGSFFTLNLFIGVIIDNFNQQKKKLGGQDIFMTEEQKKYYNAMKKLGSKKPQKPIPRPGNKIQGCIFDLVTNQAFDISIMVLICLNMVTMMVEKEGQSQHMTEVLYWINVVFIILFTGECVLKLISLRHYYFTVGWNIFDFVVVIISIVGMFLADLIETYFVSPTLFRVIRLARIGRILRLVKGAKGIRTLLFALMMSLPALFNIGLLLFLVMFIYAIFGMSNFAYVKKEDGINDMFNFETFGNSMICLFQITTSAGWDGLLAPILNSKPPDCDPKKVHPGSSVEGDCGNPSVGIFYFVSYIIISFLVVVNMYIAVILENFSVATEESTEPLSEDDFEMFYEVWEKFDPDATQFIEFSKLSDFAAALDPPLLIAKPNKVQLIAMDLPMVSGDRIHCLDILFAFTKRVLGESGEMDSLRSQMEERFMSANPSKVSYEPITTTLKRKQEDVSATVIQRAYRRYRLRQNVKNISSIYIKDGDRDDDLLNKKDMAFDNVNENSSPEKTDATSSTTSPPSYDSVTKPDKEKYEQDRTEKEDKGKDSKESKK

hNav1.5 = hNav1.5 (Homo sapiens, UniProt Q14524)
hNav1.3 = hNav1.3 (Homo sapiens, UniProt Q9NY46); conditions: IonWorks Quattro, read-out: IWQ Use Nav1.3
hNav1.3, sequence (Q9NY46 whole entry, looked up): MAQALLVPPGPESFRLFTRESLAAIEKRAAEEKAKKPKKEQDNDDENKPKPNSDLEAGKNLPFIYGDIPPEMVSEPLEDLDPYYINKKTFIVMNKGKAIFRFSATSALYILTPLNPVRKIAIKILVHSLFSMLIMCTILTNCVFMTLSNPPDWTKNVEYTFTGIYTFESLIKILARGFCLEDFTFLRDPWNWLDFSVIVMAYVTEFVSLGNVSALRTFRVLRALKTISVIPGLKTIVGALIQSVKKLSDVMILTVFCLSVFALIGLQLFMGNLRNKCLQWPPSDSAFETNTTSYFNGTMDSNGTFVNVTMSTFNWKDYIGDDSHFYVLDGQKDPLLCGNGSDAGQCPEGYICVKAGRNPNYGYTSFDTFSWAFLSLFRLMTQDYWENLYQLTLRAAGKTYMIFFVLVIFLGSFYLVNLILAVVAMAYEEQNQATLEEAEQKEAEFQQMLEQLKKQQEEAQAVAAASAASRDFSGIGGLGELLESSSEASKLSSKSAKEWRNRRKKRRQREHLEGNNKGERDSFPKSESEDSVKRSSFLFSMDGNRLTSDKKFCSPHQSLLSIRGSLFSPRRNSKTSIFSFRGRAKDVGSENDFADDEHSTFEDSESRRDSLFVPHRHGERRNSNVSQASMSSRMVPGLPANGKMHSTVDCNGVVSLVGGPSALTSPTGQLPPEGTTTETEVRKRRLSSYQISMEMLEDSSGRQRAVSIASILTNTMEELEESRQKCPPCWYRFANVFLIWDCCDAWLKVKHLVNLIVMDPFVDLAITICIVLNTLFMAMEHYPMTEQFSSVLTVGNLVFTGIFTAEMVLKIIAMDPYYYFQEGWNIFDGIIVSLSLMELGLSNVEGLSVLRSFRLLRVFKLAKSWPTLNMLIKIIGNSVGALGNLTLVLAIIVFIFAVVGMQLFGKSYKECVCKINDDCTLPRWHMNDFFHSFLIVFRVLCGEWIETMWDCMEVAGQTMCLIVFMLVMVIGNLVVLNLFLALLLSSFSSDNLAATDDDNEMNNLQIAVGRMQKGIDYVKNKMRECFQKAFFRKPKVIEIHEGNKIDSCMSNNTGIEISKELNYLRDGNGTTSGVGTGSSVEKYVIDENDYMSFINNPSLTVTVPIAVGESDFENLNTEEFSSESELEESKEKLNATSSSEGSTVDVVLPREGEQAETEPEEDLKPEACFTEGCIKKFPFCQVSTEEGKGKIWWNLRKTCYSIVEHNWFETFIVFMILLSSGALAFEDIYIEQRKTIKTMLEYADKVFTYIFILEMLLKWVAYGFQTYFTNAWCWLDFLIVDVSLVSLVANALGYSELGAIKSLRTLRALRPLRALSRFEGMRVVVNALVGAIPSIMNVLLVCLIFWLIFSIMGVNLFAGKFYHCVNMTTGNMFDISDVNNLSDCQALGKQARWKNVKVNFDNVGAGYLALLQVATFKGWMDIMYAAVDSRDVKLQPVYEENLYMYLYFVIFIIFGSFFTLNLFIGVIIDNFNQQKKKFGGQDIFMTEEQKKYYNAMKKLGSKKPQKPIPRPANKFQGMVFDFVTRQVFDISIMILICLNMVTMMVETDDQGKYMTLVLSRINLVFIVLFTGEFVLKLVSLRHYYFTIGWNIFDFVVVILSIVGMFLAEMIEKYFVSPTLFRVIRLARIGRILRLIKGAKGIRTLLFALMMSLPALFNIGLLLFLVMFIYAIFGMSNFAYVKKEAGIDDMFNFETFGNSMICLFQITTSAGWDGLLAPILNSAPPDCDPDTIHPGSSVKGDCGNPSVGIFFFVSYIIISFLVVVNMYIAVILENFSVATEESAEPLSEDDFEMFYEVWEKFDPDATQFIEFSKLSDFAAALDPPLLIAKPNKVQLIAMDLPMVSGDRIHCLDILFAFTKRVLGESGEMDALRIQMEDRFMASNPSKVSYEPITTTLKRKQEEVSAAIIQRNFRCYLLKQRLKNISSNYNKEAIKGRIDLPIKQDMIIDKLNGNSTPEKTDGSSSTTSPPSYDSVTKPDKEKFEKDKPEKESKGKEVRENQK

[1] = IonWorks Quattro, Use, read-out: IWQ Use Nav1.5
[2] = IonWorks Quattro, use-dependent block, hNav1.5, read-out: IWQ Use Nav1.5

| SMILES | pIC50 (hNav1.7; Use) | pIC50 (hNav1.5; [1]) | pIC50 (hNav1.3; Use) | pIC50 (hNav1.7; use-dependent block, hNav1.7) | pIC50 (hNav1.5; [2]) | pIC50 (hNav1.3; use-dependent block, hNav1.3) | further results |
| --- | --- | --- | --- | --- | --- | --- | --- |
| CC[C@H](C)[C@@H]1NC(=O)[C@@H]2CSSC[C@@H]3NC(=O)[C@H](C(C)C)NC(=O)[C@H](CC(C)C)NC(=O)[C@H](CC(N)=O)NC(=O)[C@@H]4CCCN4C(=O)[C@H](CCCNC(=N)N)NC(=O)[C@H](CSSC[C@H](NC(=O)[C@@H](N)CC(=O)O)C(=O)N[C@@H](CC(C)C)C(=O)NCC(=O)N[C@@H](Cc4ccccc4)C(=O)N[C@@H](CCSC)C(=O)N[C@@H](CCCNC(=N)N)C(=O)N[C@@H](CCCCN)C(=O)N2)NC(=O)[C@H](CSSC[C@@H](C(=O)N[C@@H](CCCCN)C(=O)N[C@@H](Cc2ccc(O)cc2)C(=O)N[C@H](C(=O)N[C@@H](Cc2ccccc2)C(N)=O)C(C)C)NC(=O)[C@H](Cc2c[nH]c4ccccc24)NC(=O)[C@H](CCCCN)NC(=O)[C@H](Cc2c[nH]cn2)NC(=O)[C@H]([C@@H](C)O)NC(=O)[C@H](CCCNC(=N)N)NC(=O)[C@H](CO)NC3=O)NC(=O)[C@H](CCCCN)NC(=O)[C@H](CC(=O)O)NC(=O)[C@H](CC(N)=O)NC(=O)CNC(=O)[C@@H]2CCCN2C1=O [compound 194] (H-DCLGFMRKCIPGNDKCCRPNLVCSRTHKWCKYVF-NH2; disulfide 2-17, 9-23, 16-30) | 7.12 | 5.06 | 7.33 |  |  |  |  |
| CC[C@H](C)[C@@H]1NC(=O)[C@@H]2CSSC[C@@H]3NC(=O)[C@H](C(C)C)NC(=O)[C@H](CC(C)C)NC(=O)[C@H](CC(N)=O)NC(=O)[C@H](CO)NC(=O)[C@H](CCCNC(=N)N)NC(=O)[C@H](CSSC[C@H](NC(=O)[C@@H](N)CC(=O)O)C(=O)N[C@@H](CC(C)C)C(=O)NCC(=O)N[C@@H](Cc4ccccc4)C(=O)N[C@@H](CCSC)C(=O)N[C@@H](CCCNC(=N)N)C(=O)N[C@@H](CCCCN)C(=O)N2)NC(=O)[C@H](CSSC[C@@H](C(=O)N[C@@H](CCCCN)C(=O)N[C@@H](Cc2ccc(O)cc2)C(=O)N[C@H](C(=O)N[C@@H](Cc2ccccc2)C(N)=O)C(C)C)NC(=O)[C@H](Cc2c[nH]c4ccccc24)NC(=O)[C@H](CCCCN)NC(=O)[C@H](Cc2c[nH]cn2)NC(=O)[C@H]([C@@H](C)O)NC(=O)[C@H](CCCNC(=N)N)NC(=O)[C@H](CO)NC3=O)NC(=O)[C@H](CCCCN)NC(=O)[C@H](CC(=O)O)NC(=O)[C@H](CC(N)=O)NC(=O)[C@H](CC(=O)O)NC(=O)[C@@H]2CCCN2C1=O [compound 181] (H-DCLGFMRKCIPDNDKCCRSNLVCSRTHKWCKYVF-NH2; disulfide 2-17, 9-23, 16-30) | 7.06 | 4.94 | 7.51 |  |  |  |  |
| CSCC[C@@H]1NC(=O)[C@H](Cc2ccccc2)NC(=O)CNC(=O)[C@H](CC(C)C)NC(=O)[C@@H](NC(=O)[C@@H](N)CC(=O)O)CSSC[C@@H]2NC(=O)[C@@H]3CSSC[C@@H](C(=O)N[C@@H](CCCCN)C(=O)N[C@@H](Cc4ccc(O)cc4)C(=O)N[C@H](C(=O)N[C@@H](Cc4ccccc4)C(N)=O)C(C)C)NC(=O)[C@H](Cc4c[nH]c5ccccc45)NC(=O)[C@H](CCCCN)NC(=O)[C@H](Cc4cnc[nH]4)NC(=O)[C@H]([C@@H](C)O)NC(=O)[C@H](CCCNC(=N)N)NC(=O)[C@H](CO)NC(=O)[C@H](CSSC[C@H](NC(=O)[C@H](CCCCN)NC(=O)[C@H](CCCNC(=N)N)NC1=O)C(=O)N[C@@H](CC(C)C)C(=O)N1CCC[C@H]1C(=O)N[C@@H](CC(=O)O)C(=O)N[C@@H](CC(N)=O)C(=O)N[C@@H](CC(=O)O)C(=O)N[C@@H](CCCCN)C(=O)N3)NC(=O)[C@H](C(C)C)NC(=O)[C@H](CC(C)C)NC(=O)[C@H](CC(N)=O)NC(=O)[C@@H]1CCCN1C(=O)[C@H](CCCNC(=N)N)NC2=O [compound 303] (H-DCLGFMRKCLPDNDKCCRPNLVCSRTHKWCKYVF-NH2; disulfide 2-17, 9-23, 16-30) | 6.89 | 5.09 | 7.10 |  |  |  |  |
| CC[C@H](C)[C@@H]1NC(=O)[C@@H]2CSSC[C@@H]3NC(=O)[C@H](C(C)C)NC(=O)[C@H](CC(C)C)NC(=O)[C@H](CC(N)=O)NC(=O)[C@@H]4CCCN4C(=O)[C@H](CCCNC(=N)N)NC(=O)[C@H](CSSC[C@H](NC(=O)[C@@H](N)CC(=O)O)C(=O)N[C@@H](CC(C)C)C(=O)NCC(=O)N[C@@H](C)C(=O)N[C@@H](CC(C)C)C(=O)N[C@@H](CCCNC(=N)N)C(=O)N[C@@H](CCCCN)C(=O)N2)NC(=O)[C@H](CSSC[C@@H](C(=O)N[C@@H](CCCCN)C(=O)N[C@@H](Cc2ccc(O)cc2)C(=O)N[C@H](C(=O)N[C@@H](Cc2ccccc2)C(=O)O)C(C)C)NC(=O)[C@H](Cc2c[nH]c4ccccc24)NC(=O)[C@H](CCSC)NC(=O)[C@H](Cc2c[nH]cn2)NC(=O)[C@H]([C@@H](C)O)NC(=O)[C@H](CCCNC(=N)N)NC(=O)[C@H](CO)NC3=O)NC(=O)[C@H](CCCCN)NC(=O)[C@H](CC(=O)O)NC(=O)[C@H](CC(N)=O)NC(=O)[C@H](CC(=O)O)NC(=O)[C@@H]2CCCN2C1=O [compound 857] (H-DCLGALRKCIPDNDKCCRPNLVCSRTHMWCKYVF-OH; disulfide 2-17, 9-23, 16-30) |  |  |  | < 5.30 | < 5.30 | < 5.30 |  |
| C#CC[C@@H]1NC(=O)[C@@H]2CCCN2C(=O)[C@H]([C@@H](C)CC)NC(=O)[C@@H]2CSSC[C@@H]3NC(=O)[C@H](C(C)C)NC(=O)[C@H](CC(C)C)NC(=O)[C@H](CC(N)=O)NC(=O)[C@@H]4CCCN4C(=O)[C@H](CCCNC(=N)N)NC(=O)[C@H](CSSC[C@H](NC(=O)[C@@H](N)CC(=O)O)C(=O)N[C@@H](CC(C)C)C(=O)NCC(=O)N[C@@H](C)C(=O)N[C@@H](CC(C)C)C(=O)N[C@@H](CCCNC(=N)N)C(=O)N[C@@H](CCCCN)C(=O)N2)NC(=O)[C@H](CSSC[C@@H](C(=O)N[C@@H](CCCCN)C(=O)N[C@@H](Cc2ccc(O)cc2)C(=O)N[C@H](C(=O)N[C@@H](Cc2ccccc2)C(N)=O)C(C)C)NC(=O)[C@H](Cc2c[nH]c4ccccc24)NC(=O)[C@H](CCCNC(=N)N)NC(=O)[C@H](Cc2c[nH]cn2)NC(=O)[C@H](CC(C)C)NC(=O)[C@H](CCCNC(=N)N)NC(=O)[C@H](CO)NC3=O)NC(=O)[C@H](CCCCN)NC(=O)[C@H](CC(=O)O)NC(=O)[C@H](CC(N)=O)NC1=O [compound 802] |  |  |  | 6.59 | < 4.30 | 6.27 |  |
| CC[C@H](C)[C@@H]1NC(=O)[C@@H]2CSSC[C@@H]3NC(=O)[C@H](C(C)C)NC(=O)[C@H](CC(C)C)NC(=O)[C@H](CC(N)=O)NC(=O)[C@@H]4CCCN4C(=O)[C@H](CCCNC(=N)N)NC(=O)[C@H](CSSC[C@H](NC(=O)[C@@H](N)CC(=O)O)C(=O)N[C@@H](CC(C)C)C(=O)NCC(=O)N(C)[C@@H](Cc4ccccc4)C(=O)N[C@@H](CCSC)C(=O)N[C@@H](CCCNC(=N)N)C(=O)N[C@@H](CCCCN)C(=O)N2)NC(=O)[C@H](CSSC[C@@H](C(=O)N[C@@H](CCCCN)C(=O)N[C@@H](Cc2ccc(O)cc2)C(=O)N[C@H](C(=O)N[C@@H](Cc2ccccc2)C(N)=O)C(C)C)NC(=O)[C@H](Cc2c[nH]c4ccccc24)NC(=O)[C@H](CCCCN)NC(=O)[C@H](Cc2c[nH]cn2)NC(=O)[C@H]([C@@H](C)O)NC(=O)[C@H](CCCNC(=N)N)NC(=O)[C@H](CO)NC3=O)NC(=O)[C@H](CCCCN)NC(=O)[C@H](CC(=O)O)NC(=O)[C@H](CC(N)=O)NC(=O)[C@H](CC(=O)O)NC(=O)[C@@H]2CCCN2C1=O [compound 657] |  |  |  |  |  |  | pIC50 (hNav1.7; use-dependent protocol, hNav1.7): 6.44; pIC50 (hNav1.5; IWQ Use Nav1.5): < 5.30; pIC50 (hNav1.3; use-dependent protocol, hNav1.3): 6.55 |
| CC[C@H](C)[C@@H]1NC(=O)[C@@H]2CSSC[C@@H]3NC(=O)[C@H](C(C)C)NC(=O)[C@H](CC(C)C)NC(=O)[C@H](CC(N)=O)NC(=O)[C@@H]4CCCN4C(=O)[C@H](CCCNC(=N)N)NC(=O)[C@H](CSSC[C@H](NC(=O)[C@@H](N)CC(=O)O)C(=O)N[C@@H](CC(C)C)C(=O)NCC(=O)N[C@@H](Cc4ccccc4)C(=O)N[C@@H](CCSC)C(=O)N[C@@H](CCCNC(=N)N)C(=O)N[C@@H](CCCCN)C(=O)N2)NC(=O)[C@H](CSSC[C@@H](C(=O)N[C@@H](CCCCN)C(=O)N[C@@H](Cc2ccc(O)cc2)C(=O)N[C@H](C(=O)N[C@H](C(N)=O)c2ccccc2)C(C)C)NC(=O)[C@H](Cc2c[nH]c4ccccc24)NC(=O)[C@H](CCCCN)NC(=O)[C@H](Cc2c[nH]cn2)NC(=O)[C@H]([C@@H](C)O)NC(=O)[C@H](CCCNC(=N)N)NC(=O)[C@H](CO)NC3=O)NC(=O)[C@H](CCCCN)NC(=O)[C@H](CC(=O)O)NC(=O)[C@H](CC(N)=O)NC(=O)[C@H](CC(=O)O)NC(=O)[C@@H]2CCCN2C1=O [compound 406] (H-DCLGFMRKCIPDNDKCCRPNLVCSRTHKWCKYV[Phg]-NH2; disulfide 2-17, 9-23, 16-30) |  |  |  |  |  |  | pIC50 (hNav1.7; use-dependent, […]): 7.40; pIC50 (hNav1.5; IonWorks Quattro, use-dependent, […], read-out: IWQ Use Nav1.5): 5.23; pIC50 (hNav1.3; use-dependent, […]): 7.70 |
| CC[C@H](C)[C@@H]1NC(=O)[C@@H]2CSSC[C@@H]3NC(=O)[C@H](C(C)C)NC(=O)[C@H](CC(C)C)NC(=O)[C@H](CC(N)=O)NC(=O)[C@@H]4CCCN4C(=O)[C@H](CCCNC(=N)N)NC(=O)[C@H](CSSC[C@H](NC(=O)[C@@H](N)CC(=O)O)C(=O)N[C@@H](CC(C)C)C(=O)NCC(=O)N[C@@H](C)C(=O)N[C@@H](CC(C)C)C(=O)N[C@@H](CCCNC(=N)N)C(=O)N[C@@H](CCCCN)C(=O)N2)NC(=O)[C@H](CSSC[C@@H](C(=O)N[C@@H](CCCCN)C(=O)N[C@@H](Cc2ccc(O)cc2)C(=O)N[C@H](C(=O)N[C@@H](Cc2ccccc2)C(=O)O)C(C)C)NC(=O)[C@H](Cc2c[nH]c4ccccc24)NC(=O)[C@H](CCCNC(=N)N)NC(=O)[C@H](Cc2c[nH]cn2)NC(=O)[C@H]([C@@H](C)O)NC(=O)[C@H](CCCNC(=N)N)NC(=O)[C@H](CO)NC3=O)NC(=O)[C@H](CCCCN)NC(=O)[C@H](CC(=O)O)NC(=O)[C@H](Cc2ccccc2)NC(=O)[C@H](CC(=O)O)NC(=O)[C@@H]2CCCN2C1=O [compound 863] (H-DCLGALRKCIPDFDKCCRPNLVCSRTHRWCKYVF-OH; disulfide 2-17, 9-23, 16-30) |  |  |  | < 5.30 | < 5.30 | < 5.30 |  |
